In patent US8815834B2, “Use of dendrimers to stimulate cell growth” (Centre National de la Recherche Scientifique, priority 2004, dated 2014):

Test system: human NK cells
Assay: Culture of PBMC with dendrimer and IL2: amplification and phenotype of NK cells
Conditions: in particular at a concentration of 20 μM; FIG. 4B
Description: Peripheral blood mononuclear cells (PBMC) obtained from a healthy adult human donor by centrifugation over a density gradient (Ficoll-Hypaque, Amersham Pharmacia Biotech, Upsalla, SWEDEN) are cultured in sterile cell culture flasks at a concentration of 1.5 million cells per ml of culture medium of the RPMI 1640 type, 25 mM Hepes/Ultraglutamine 1 (Cambrex Bio Science, Verviers, BELGIUM) supplemented with: • i) 1 mM sodium pyruvate (Invitrogen Corporation, Paisley, UNITED KINGDOM) • ii) 100 μg/ml of streptomycin and 100 U/ml of penicillin (Cambrex Bio Science, Verviers, BELGIUM); • iii) 10% by volume of foetal calf serum (Invitrogen Corporation, Paisley, UNITED KINGDOM) decomplemented for 30 minutes at 56° C. (FCS); • iv) 20 μM of GC1 dendrimer solubilized at a concentration of 2 mM in sterile non-pyrogenic PBS; • v) 200 U/ml of human recombinant IL2 (Sanofi-Synthelabo, Paris, FRANCE) is added to the culture medium thus produced. […]
The PBMCs obtained from a healthy adult human donor are cultured for 15 days with GC1 then counted by total counting of the living cells (Ntot). […]
The NK cells obtained starting with PBMCs from healthy donors cultured under the conditions described previously are counted, at the start of the experiment then at the end of 3.5 weeks of culture. […]

O=P(O)(O)CN(CCc1ccc(O)cc1)CP(=O)(O)O [phenol-azabisphosphonic monomer derived from tyramine]
Immunostimulant properties on the in vitro amplification of human NK cells: inactive
